According to the NIST ThermoML archive (doi:10.1016/j.jct.2017.08.028):

Settings: Crystal; for molar entropy: 100 kPa, Small (less than 1 g) adiabatic calorimetry; for mass density: 101.33 kPa, X-ray diffraction

O[C@H]1[C@H](O)[C@@H](O)[C@H](O)[C@@H](O)[C@H]1O [cis-1,2,3,5-trans-4,6-cyclohexanehexol]
Settings | mass density [kg/m3] | molar entropy [J/K/mol]
5 K | – | 0.0237
6 K | – | 0.0492
7 K | – | 0.091
8 K | – | 0.1546
9 K | – | 0.2451
10 K | – | 0.3742
15 K | – | 1.491
20 K | – | 3.261
25 K | – | 5.458
30 K | – | 7.964
35 K | – | 10.69
40 K | – | 13.58
45 K | – | 16.57
50 K | – | 19.63
60 K | – | 25.97
70 K | – | 32.56
80 K | – | 39.37
90 K | – | 46.36
100 K | – | 53.48
110 K | – | 60.72
120 K | – | 68.03
130 K | – | 75.4
140 K | – | 82.82
150 K | 1577 | 90.26
160 K | – | 97.71
170 K | – | 105.2
175 K | 1574 | –
180 K | – | 112.6
190 K | – | 120.1
200 K | 1574 | 127.6
210 K | – | 135
220 K | – | 142.4
225 K | 1575 | –
230 K | – | 149.9
240 K | – | 157.3
250 K | 1572 | 164.8
260 K | – | 172.2
270 K | – | 179.6
273.15 K | – | 182
275 K | 1570 | –
280 K | – | 187.1
290 K | – | 194.5
298.15 K | – | 200.6
300 K | 1569 | 202
310 K | – | 209.4
320 K | – | 216.9
325 K | 1569 | –
330 K | – | 224.3
340 K | – | 231.8
350 K | 1566 | –
375 K | 1561 | –
400 K | 1559 | –
425 K | 1555 | –
450 K | 1553 | –
